Converted amounts (≈) assume the structure as drawn. “And” between values parts separate entries of the source, which are not always exact repeats. Equal entries are not always repeated. Where two headings read alike, the source gives them in different places.
What was measured:
T. axei = assay: anthelmintic efficacy in animals experimentally infected with Trichostrongylus axei; format: in vivo, Meriones unguiculatus
Experimental: (§1) The compounds were tested at doses of 3 mg/kg bodyweight (BW), 1 mg/kg BW and 0.3 mg/kg BW.
(§2) The animals were orally infected L3-larvae of each T. axei and T. colubriformis. On D 19 post infectionem (PI) animals were treated once IP, SC or PO with the test compounds in 10% DMF/90% water a dose of 3 mg/kg BW, 1 mg/kg BW or 0.3 mg/kg BW. Three days after treatment animals were necropsied and worm burden in stomach and small intestine was determined. Efficacy was defined as the reduction of the mean worm count (geometric mean) in the treatment groups in comparison to the control group. The dose-response relationship was investigated by calculating Pearson's coefficient of correlation.

T. colubriformis = assay: anthelmintic efficacy in animals experimentally infected with T. colubriformis; format: in vivo, Meriones unguiculatus
Experimental: as §1, §2

Haemonchus contortus = assay: anthelmintic efficacy in animals experimentally infected with Haemonchus contortus; format: in vivo, Meriones unguiculatus
Experimental: as §1
The animals were orally infected with L3-larvae of H. contortus. On D 10 post infectionem (PI) animals were treated once IP, SC or PO with the test compounds in 10% DMF/90% water at doses of 3.0 mg/kg BW, 1.0 mg/kg BW or 0.3 mg/kg BW. Three days after treatment animals were necropsied and larvae burden in stomachs was determined. Efficacy was defined as the reduction of the mean larvae count (geometric mean) in the treatment groups in comparison to the control group. The dose-response relationship was investigated by calculating Pearson's coefficient of correlation.

[1] = solubility in water of compounds of the invention
[2] = in water; literature; cited from earlier work
[3] = reported; cited from earlier work
[4] = test system: Ascaridia galli (intestinal roundworm of chicken), larval stage 3 (L3); assay: in vitro larval assay, minimum effective concentration; format: cell-based; conditions: day 5, 20 larvae per well, microscopic examination
Experimental: (§3) Anthelmintic effects of the compounds of the present invention were tested in vitro using gut welling larval stages of two parasitic nematode species: Ascaridia galli (intestinal roundworm of chicken), larval stage 3 (L3), and Oesophagostomum dentatum (nodular worm of swine), larval stages 3 and 4 (L3; LA).
(§4) Principle of the assays: Various concentrations of compounds were incubated in 96 well microtiter plates, in which parasites were then distributed at 20 larvae per well. The anthelmintic effects were classified at day 5 by microscopic examination assessing mortality, damage, motility, progression of development and neutral red uptake by the larvae in comparison to a DMSO-control and the standard anthelmintics fenbendazole. The anthelmintic effects were defined by the minimum effective concentration (MEC) as reflected in table 1.

[5] = test system: Oesophagostomum dentatum (nodular worm of swine), larval stages 3 and 4; assay: as above; format: cell-based; conditions: day 5, 20 larvae per well
Experimental: as §3, §4

[6] = 0.3 mg/kg BW once, IP (fenbendazole equivalent 0.3; Compound A 0.2 mg/kg)
[7] = 0.3 mg/kg BW once, PO (fenbendazole equivalent 0.3; Compound A 0.2 mg/kg)
[8] = 0.3 mg/kg BW once, SC (fenbendazole equivalent 0.3; Compound A 0.2 mg/kg)
[9] = 1 mg/kg BW once, IP (fenbendazole equivalent 1.0; Compound A 0.6 mg/kg)
[10] = 1 mg/kg BW once, PO (fenbendazole equivalent 1.0; Compound A 0.6 mg/kg)
[11] = 1 mg/kg BW once, SC (fenbendazole equivalent 1.0; Compound A 0.6 mg/kg)
[12] = 3 mg/kg BW once, IP (fenbendazole equivalent 3.0; Compound A 1.8 mg/kg)
[13] = 3 mg/kg BW once, PO (fenbendazole equivalent 3.0; Compound A 1.8 mg/kg)
[14] = 3 mg/kg BW once, SC (fenbendazole equivalent 3.0; Compound A 1.8 mg/kg)
[15] = 3 mg/kg BW once, IP (fenbendazole equivalent 3.0; Compound A 1.8 mg/kg), listed as Fenbendazole
[16] = 3 mg/kg BW once, PO (fenbendazole equivalent 3.0; Compound A 1.8 mg/kg), listed as Fenbendazole
[17] = 3 mg/kg BW once, SC (fenbendazole equivalent 3.0; Compound A 1.8 mg/kg), listed as Fenbendazole

Row | Compound | Reduction worm number (%) T. axei (T. axei; [6]) [%] | Reduction worm number (%) T. axei (T. axei; [7]) [%] | Reduction worm number (%) T. axei (T. axei; [8]) [%] | Reduction worm number (%) T. axei (T. axei; [9]) [%] | Reduction worm number (%) T. axei (T. axei; [10]) [%] | Reduction worm number (%) T. axei (T. axei; [11]) [%] | Reduction worm number (%) T. axei (T. axei; [12]) [%] | Reduction worm number (%) T. axei (T. axei; [13]) [%] | Reduction worm number (%) T. axei (T. axei; [14]) [%] | Reduction worm number (%) T. colubriformis (T. colubriformis; [6]) [%] | Reduction worm number (%) T. colubriformis (T. colubriformis; [7]) [%] | Reduction worm number (%) T. colubriformis (T. colubriformis; [8]) [%] | Reduction worm number (%) T. colubriformis (T. colubriformis; [9]) [%] | Reduction worm number (%) T. colubriformis (T. colubriformis; [10]) [%] | Reduction worm number (%) T. colubriformis (T. colubriformis; [11]) [%] | Reduction worm number (%) T. colubriformis (T. colubriformis; [12]) [%] | Reduction worm number (%) T. colubriformis (T. colubriformis; [13]) [%] | Reduction worm number (%) T. colubriformis (T. colubriformis; [14]) [%] | Reduction worm number (%) H. contortus larvae (Haemonchus contortus; [6]) [%] | Reduction worm number (%) H. contortus larvae (Haemonchus contortus; [7]) [%] | further results
1 | (5- and 6-phenylsulfanyl-1-phosphonooxymethyl-1(H)-benzoimidazol-2-yl)-carbamic acid methyl esters [Compound A] | 69.66 | 59.20 | −43.64 | 83.98 | 96.71 | 82.98 | 100.00 | 98.00 | 100.00 | −50.17 | −3.71 | −106.50 | 28.18 | 37.27 | 68.61 | 93.26 | 100.00 | 85.70 | 65.02 | 87.00 | Reduction worm number (%) T. axei (T. axei; 0.3 mg/kg BW once, SC (fenbendazole equivalent 0.3; Compound A 0.2 mg/kg), listed as compound A): 43.64%; Reduction worm number (%) T. axei (T. axei; 3 mg/kg BW once, IP (fenbendazole equivalent 3.0; Compound A 1.8 mg/kg), listed as compound A): 100%; Reduction worm number (%) T. axei (T. axei; 3 mg/kg BW once, SC (fenbendazole equivalent 3.0; Compound A 1.8 mg/kg), listed as compound A): 100%; overall efficacy compared with fenbendazole (T. axei; T. axei, all doses and routes): same efficacy as treatment with fenbendazole; overall efficacy compared with fenbendazole (T. colubriformis; T. colubriformis, all doses and routes): same efficacy as treatment with fenbendazole; Reduction worm number (%) H. contortus larvae (Haemonchus contortus; [8]): 47.40%; Reduction worm number (%) H. contortus larvae (Haemonchus contortus; [9]): 90.65%; Reduction worm number (%) H. contortus larvae (Haemonchus contortus; [10]): 88.62%; Reduction worm number (%) H. contortus larvae (Haemonchus contortus; [11]): 87.61%; Reduction worm number (%) H. contortus larvae (Haemonchus contortus; [12]): 93.81%; Reduction worm number (%) H. contortus larvae (Haemonchus contortus; [13]): 90.81%; Reduction worm number (%) H. contortus larvae (Haemonchus contortus; [14]): 94.84%; overall efficacy compared with fenbendazole (Haemonchus contortus; H. contortus, all doses and routes): same efficacy as treatment with fenbendazole
2 | (5- and 6-phenylsulfanyl-1-phosphonooxymethyl-1(H)-benzoimidazol-2-yl)-carbamic acid methyl esters di-sodium salts | – | – | – | – | – | – | – | – | – | – | – | – | – | – | – | – | – | – | – | – | solubility in water [1]: 132 mM and 67 g/L
3 | CCCSc1ccc2c(c1)nc(NC(=O)OC)n2COP(=O)([O-])[O-].[Na+].[Na+] [(1-phosphonooxymethyl-5- and 6-propylsulfanyl-1(H)-benzoimidazol-2-yl)-carbamic acid methyl esters] | – | – | – | – | – | – | – | – | – | – | – | – | – | – | – | – | – | – | – | – | solubility ([1]; water): ≥ 50 mM
4 | COc1ccc2[nH]c([S+]([O-])Cc3ncc(C)c(OC)c3C)nc2c1 (centres unmarked) [omeprazole] | – | – | – | – | – | – | – | – | – | – | – | – | – | – | – | – | – | – | – | – | solubility [2]: 500 µg/mL (≈ 1450 µM)
5 | CCCSc1ccc([N+](=O)[O-])c(N/C(=N/CCS(=O)(=O)O)NC(=O)OC)c1 [netobimin] | – | – | – | – | – | – | – | – | – | – | – | – | – | – | – | – | – | – | – | – | embryonal toxicity [3]: reported to cause embryonal toxicity
6 | COC(=O)Nc1nc2ccc(Sc3ccccc3)cc2[nH]1 [fenbendazole, reference compound] | −283.85 | −115.44 | 82.15 | 80.94 | 88.80 | 82.15 | 100 | 100 | 100 | 79.33 | 68.75 | 43.18 | 80.04 | 80.04 | 81.10 | 100 | 100 | 100 | 80.63 | 91.73 | solubility [2]: lower than 0.05 μg/mL; Reduction worm number (%) T. axei (T. axei; [15]): 100.00%; Reduction worm number (%) T. axei (T. axei; [16]): 100.00%; Reduction worm number (%) T. axei (T. axei; [17]): 100.00%; Minimum effective concentrations A. galli (L3) [4]: 0.050 µM; Minimum effective concentrations O. dentatum (L3) ([5]; L3): 1.000 µM; Minimum effective concentrations O. dentatum (L4) ([5]; L4): 0.025 µM; Reduction worm number (%) T. colubriformis (T. colubriformis; [15]): 100.00%; Reduction worm number (%) T. colubriformis (T. colubriformis; [16]): 100.00%; Reduction worm number (%) T. colubriformis (T. colubriformis; [17]): 100.00%; Reduction worm number (%) H. contortus larvae (Haemonchus contortus; [8]): 88.36%; Reduction worm number (%) H. contortus larvae (Haemonchus contortus; [9]): 89.33%; Reduction worm number (%) H. contortus larvae (Haemonchus contortus; [10]): 78.05%; Reduction worm number (%) H. contortus larvae (Haemonchus contortus; [11]): 89.16%; Reduction worm number (%) H. contortus larvae (Haemonchus contortus; [12]): 100.00%; Reduction worm number (%) H. contortus larvae (Haemonchus contortus; [13]): 96.49%; Reduction worm number (%) H. contortus larvae (Haemonchus contortus; [14]): 95.10%
